Measurements reported in patent US20260378560A1, “APPROACHES TO DESIGNING AND PERFORMING COMPRESSED BIOLOGICAL EXPERIMENTS AND SYSTEMS FOR IMPLEMENTING THE SAME” (EXVIVO LABS INC., priority 2023, published 2026).

Experiments:
[1] = system: MOLT-4; assay: Cell viability (CellTiter Glo), library of cancer drugs, individual or sample compression with randomized (alphabetical) pools, MOLT-4; format: cell-based; conditions: for DRS: MOLT-4, None (measured individually); for DRS from deconvolution: MOLT-4, Samples, 7 Pick 3 randomized (alphabetical) sample pools
Procedure: (§1) Total cell viability was measured for each sample using an ATP-based luminescence assay (i.e., CellTiter Glo). Each cancer drug was then screened at multiple concentrations ranging from one nM to ten μM in order to generate a dose-response curve and calculate a DRS for each cancer cell line.
(§2) Each cancer drug was cultured with target cells individually. At the end of the screen, samples were either analyzed individually or compressed into pools for analysis. The library was compressed alphabetically into ten cohorts, each of which contained seven cancer drugs present in three out of the seven pools, as shown in Table VII. Said another way, the screening platform 210 generated a “7 pick 3” compressed library by assigning the cancer drugs among different pools. […] The library was also compressed into ten cohorts with pools designed based on information known about each cancer drug, as shown in Table VIII. After cell viability measurement and DRS calculation, the DRS of each cancer drug in the samples generated based on the pools were deconvoluted and compared to the DRS for each cancer drug measured individually.
(§3) In SUM-based deconvolution, an assumption of additivity is used to quantify the individual effects of each perturbation on each target. Additivity implies that each perturbation effect on each target is positively contributing to the overall effect measured for that pool. This is an accurate assumption for certain experiments, such as when targets or samples are compressed. When targets are pooled—or when samples containing different targets are pooled—the effect of each perturbation on each individual target is diluted. In other words, each perturbation has an isolated effect on a target in culture, and the sum total of the isolated effects are measured when pooled. Therefore, SUM-based deconvolution breaks down the sum total measured for a pool and assigns estimated fractional effects to each compressed perturbation or target in the pool. The screening platform 210 used SUM-based deconvolution for all target and sample compression experiments described above.

[2] = system: REH; assay: Cell viability (CellTiter Glo), library of cancer drugs, individual or sample compression with randomized (alphabetical) pools, REH; format: cell-based; conditions: REH; for DRS: None (measured individually); for DRS from deconvolution: Samples, 7 Pick 3 randomized (alphabetical) sample pools
Procedure: as §1, §2, §3

[3] = system: REH; assay: Cell viability (CellTiter Glo), compressed perturbation pools with informed pool design, MAX-based deconvolution, REH; conditions: REH; for DRS: None (measured individually), informed pool design table; for DRS from MAX-based deconvolution: Samples, 7 Pick 3 informed perturbation pools;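 as to all read-outs here: higher DRS means a larger drug effect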
Procedure: as §1, §2
(§4) In parallel to the exemplary sample compression screen covered in Table VII, perturbations were compressed into pools and then screened. The pools were designed using drug class as a feature with two compression rules (or simply “rules”). The first rule required that drugs from the same class be separated into different cohorts (i.e., mutually exclusive groups of pools). […] A benefit of compressing perturbations is the ability to measure additive, antagonistic, and synergistic effects between drugs in the same pool. However, these effects can negatively impact deconvolution of individual drug effects. Therefore, combinations of drugs for which evidence of clinical toxicity exists can be assigned to different pools in accordance with an informed pooling operation. As new preclinical or clinical evidence of toxic combinations becomes available, the rules implemented by the screening platform 210—and more specifically, its algorithm for compressing members of a library—can be updated accordingly.
(§5) In MAX-based deconvolution, an assumption of neutrality between the compressed perturbations is made. In other words, the perturbation with the largest effect is assumed to be masking the effects, if any, of the other perturbations in the pool. For SUM- and MAX-based deconvolution, qualitative deconvolution is first performed to rank the perturbations in each pool based on size of expected effect. Qualitative deconvolution, as described above, ranks the perturbations in a pool from largest effect size to smallest effect size. The ranking is based on the overlap of each perturbation's unique subset of pools with the highest and lowest measured pools. The perturbation with the largest effect is expected to be present in the pools with the highest measured signal or corresponding metric (e.g., DRS), while the perturbation with the smallest effect is expected to be present in the pools with the lowest measured signal or corresponding metric (e.g., DRS).
(§6) For MAX-based deconvolution, the highest ranked perturbation in the rank order is first assigned an effect size based on the pool with the lowest measured signal or corresponding metric (e.g., DRS) that it is present in. Said another way, the screening platform 210 can identify the highest ranked perturbation in the rank order and then assign an effect size based on the measured signal or corresponding metric (e.g., DRS) of the “weakest” pool in which the highest ranked perturbation is included. The screening platform 210 can repeat this step for the next highest ranked perturbation, and so on until the measurements for each pool have been assigned to one of the perturbations. The effects for the remaining perturbations can be assigned a value of zero, since it is assumed that their effect is masked by the perturbation with the largest effect in each pool.

[4] = system: MOLT-4; assay: Cell viability (CellTiter Glo), compressed perturbation pools with informed pool design, MAX-based deconvolution, MOLT-4; conditions: for DRS: MOLT-4, None (measured individually), informed pool design table; for DRS from MAX-based deconvolution: MOLT-4, Samples, 7 Pick 3 informed perturbation pools;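 as to all read-outs here: higher DRS means a larger drug effect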
Procedure: as §1, §2, §4, §5, §6

Compound	DRS [1]	DRS from deconvolution [1]	DRS [2]	DRS from deconvolution [2]	DRS [3]	DRS from MAX-based deconvolution [3]	DRS [4]	DRS from MAX-based deconvolution [4]
C[C@]12CC[C@H](O)CC1=CC[C@@H]1[C@@H]2CC[C@]2(C)C(c3cccnc3)=CC[C@@H]12 [Abiraterone]	0.27	0.30	0.27	0.29	0.20	0.00	0.00	0.00
CC#CC(=O)N1CCC[C@H]1c1nc(-c2ccc(C(=O)Nc3ccccn3)cc2)c2c(N)nccn12 [Acalabrutinib]	0.00	0.00	0.00	0.00	0.00	0.00	0.00	0.00
CCc1cc2c(cc1N1CCC(N3CCOCC3)CC1)C(C)(C)c1[nH]c3cc(C#N)ccc3c1C2=O [Alectinib]	0.00	0.00	0.20	0.00	0.00	0.00	0.70	1.19
CC(C)(C#N)c1cc(Cn2cncn2)cc(C(C)(C)C#N)c1 [Anastrozole]	0.01	0.00	0.01	0.21	0.06	0.00	0.56	0.79
C=C(c1ccc(C(=O)O)cc1)c1cc2c(cc1C)C(C)(C)CCC2(C)C [Bexarotene]	7.00	0.00	1.00	0.00	4.94	5.97	4.84	5.31
Cn1cnc2c(F)c(Nc3ccc(Br)cc3F)c(C(=O)NOCCO)cc21 [Binimetinib]	0.00	0.00	0.00	0.00	0.37	0.00	0.11	0.00
CO[C@H]1C(=O)[C@]2(C)[C@@H](OC)C[C@H]3OC[C@@]3(OC(C)=O)[C@H]2[C@H](OC(=O)c2ccccc2)[C@]2(O)C[C@H](OC(=O)[C@H](O)[C@@H](NC(=O)OC(C)(C)C)c3ccccc3)C(C)=C1C2(C)C [Cabazitaxel]	29.89	30.06	29.39	29.52	0.01	0.00	0.01	0.00
COc1cc2nccc(Oc3ccc(NC(=O)C4(C(=O)Nc5ccc(F)cc5)CC4)cc3)c2cc1OC [Cabozantinib]	2.70	9.82	8.20	9.30	0.53	0.00	0.33	0.00
CNC(=O)c1ccc(-c2cnc3ncc(Cc4ccc5ncccc5c4)n3n2)cc1F [Capmatinib]	0.10	7.24	0.10	1.13	0.00	0.00	0.40	0.00
Cc1cc(Nc2ncc(Cl)c(Nc3ccccc3S(=O)(=O)C(C)C)n2)c(OC(C)C)cc1C1CCNCC1 [Ceritinib]	0.00	0.00	0.60	0.60	10.87	12.65	6.77	6.77
